System: PGY-sRNA-26
Assay: In vivo delivery study of lipid-nucleic acid mixture (oral gavage, RT-qPCR of PGY-sRNA-26 in tissues)
Set-up: species or system mouse
Settings: C57BL/6 mice, gavage, 100 μg lipid: 10 nmol PGY-sRNA-26, 12 hours; for delivery efficacy over each tissue and blood tested (broad-spectrum delivery): all tissues and blood tested; for oral delivery of single-stranded sRNA nucleic acids into mouse intestinal tissue: intestine
Procedure: 10 nmol of small RNA (as shown in Table 2) was dissolved in 400 μl of DEPC-treated water in a glass tube, 10 μl of the corresponding lipid stock solution was added such that the lipid mass in the system was 100 μg. The mixture was mixed thoroughly, heated in a 90° C. water bath for 15 minutes, and then cooled naturally to obtain the lipid nucleic acid mixture of lipid and small RNA.
C57BL/6 male mice, approximately 6 weeks old, weighing 20-24 g, were obtained from Beijing Vital River Laboratory Animal Technology Co., Ltd. The mice were housed in the SPF-grade animal facility at the Animal Center of the Institute of Basic Medical Sciences, Chinese Academy of Medical Sciences. The mice were fasted for 12 hours before gavage administration.
The resultant lipid nucleic acid mixture was orally administered to each mouse at a dose of 100 μg lipid: 10 nmol single-stranded 3′-methylated small RNA PGY-sRNA-26.
• 1) Blank group (n=4): mice were administered with 500 μl saline by gavage, this group served as a blank control; • 2) Free uptake group (n=4): mice were directly administered with small RNA PGY-sRNA-26 solution (10 nmol/mouse, 500 μl) by gavage, this group served as a negative control; • 3) Lipid-treated group (n=4): mice were administered with 500 μl lipid nucleic acid mixture prepared in step 2 by gavage.
After 12 hours of gavage administration, 500 μl blood from the eyeball of each mouse was sampled, added to 1.5 ml Trizol Reagent LS (purchased from Invitrogen), thoroughly mixed for lysis. 3 ml of Trizol Reagent LSwas added to tissue samples and homogenized for complete lysis, wherein the sampled tissues include heart, liver, spleen, lung, kidney, stomach, intestine, brain, blood, femur. RNA was extracted from 1 ml of the blood or the tissue lysate following the steps below: • Centrifuge at 4° C., 12,000 rpm for 5 min, discard the precipitate, transfer Trizol to a new centrifuge tube; • Add chloroform at 200 μL chloroform/mL Trizol, shake well, stand at room temperature for 5 min; • Centrifuge at 4° C., 12,000 rpm for 15 min; • Take the upper aqueous phase to another centrifuge tube, add isopropanol at 0.4 mL isopropanol/mL Trizol, mix well, and stand at low temperature for 10-20 min; • Centrifuge at 4° C., 12,000 rpm for 15 min, discard the supernatant, RNA precipitated at the bottom of the tube; • Add 1 mL of 75% ethanol, gently shake the centrifuge tube, suspend the precipitate; • Centrifuge at 4° C., 12,000 rpm for 15 min, discard the supernatant, add 1 mL of 75% ethanol, gently shake the centrifuge tube, suspend the precipitate; • Centrifuge at 4° C., 12,000 rpm for 15 min, discard the supernatant, air-dry at room temperature, dissolve RNA samples in 50 μL RNase-free H2O, measure OD value to quantify RNA concentration. 3.3 Reverse Transcription of sRNA to cDNA:
The reverse transcription system is as follows: Template RNA (200 ng/μL) 10 μL, 10×RT Buffer 2.0 μL, 25×dNTP Mix (100 mM) 0.8 μL, U6 RT stem-loop primer (10 μM) 2.0 μL, PGY-sRNA-26 RT stem-loop primer (10 μM) 2.0 μL, MultiScribe™ Reverse Transcriptase (50 U/μL) 1.0 μL, RNAse Inhibitor (40 U/μL) 1.0 μL, nuclease-free H2O 1.2 μL. After transient centrifugation, the reverse transcription system was placed in a PCR machine with the following reaction conditions: (1) 25° C., 10 min; (2) 37° C., 120 min; (3) 85° C., 5 min; (4) 4° C., stop reaction. After the reaction, add 20 μL RNAse-free ddH2O, adjust the final volume to 40 μL. The stem-loop primers used in this reverse transcription process were synthesized by Beijing Tianyi Huiyuan Biotechnology Co., Ltd. (U6 was used as a standard reference gene to calculate its relative expression, because U6 RT primer was used as a reference gene in relative quantification of RT-qPCR reactions for small RNA): […]

Structure (SMILES)	delivery efficacy over each tissue and blood tested (broad-spectrum delivery)	oral delivery of single-stranded sRNA nucleic acids into mouse blood	oral delivery of single-stranded sRNA nucleic acids into mouse brain tissue	oral delivery of single-stranded sRNA nucleic acids into mouse heart tissue	oral delivery of single-stranded sRNA nucleic acids into mouse intestinal tissue	oral delivery of single-stranded sRNA nucleic acids into mouse kidney tissue	oral delivery of single-stranded sRNA nucleic acids into mouse liver tissue	oral delivery of single-stranded sRNA nucleic acids into mouse lung tissue	oral delivery of single-stranded sRNA nucleic acids into mouse spleen tissue	oral delivery of single-stranded sRNA nucleic acids into mouse stomach tissue	oral delivery of single-stranded sRNA nucleic acids into mouse femur
CC(C)[C@H](C)[C@@H](O)[C@H](O)[C@@H](C)[C@H]1CC[C@H]2[C@@H]3COC(=O)[C@H]4C[C@H](O)[C@H](O)C[C@]4(C)[C@H]3CC[C@]12C [Lipid 508]	exhibited the best delivery efficacy	can effectively orally deliver	can effectively orally deliver	can effectively orally deliver	can effectively orally deliver	can effectively orally deliver	can effectively orally deliver	can effectively orally deliver	can effectively orally deliver	can effectively orally deliver	–
C[C@]1(O)CC[C@H]2[C@@H]3CCC4=CC(=O)CC[C@]4(C)[C@@]3(F)[C@@H](O)C[C@@]21C [Lipid 532]	exhibited the best delivery efficacy	can effectively orally deliver	–	can effectively orally deliver	can effectively orally deliver	can effectively orally deliver	can effectively orally deliver	can effectively orally deliver	can effectively orally deliver	can effectively orally deliver	can effectively orally deliver
C[C@]12CCC(=O)C=C1CC[C@H]1[C@@H]3CC[C@](O)(C(=O)CO)[C@@]3(C)C[C@H](O)[C@@]12F [Lipid 534]	exhibited the best delivery efficacy	can effectively orally deliver	can effectively orally deliver	can effectively orally deliver	can effectively orally deliver	can effectively orally deliver	can effectively orally deliver	can effectively orally deliver	can effectively orally deliver	can effectively orally deliver	can effectively orally deliver
CC(C)CC[C@@H](O)[C@](C)(O)[C@H]1CC[C@@]2(O)C3=CC(=O)[C@@H]4C[C@@H](O)[C@@H](O)C[C@]4(C)[C@H]3CC[C@]12C [Lipid 538]	exhibited the best delivery efficacy	can effectively orally deliver	can effectively orally deliver	can effectively orally deliver	can effectively orally deliver	can effectively orally deliver	can effectively orally deliver	can effectively orally deliver	can effectively orally deliver	can effectively orally deliver	can effectively orally deliver
C[C@]12CCC(=O)C[C@@H]1CC[C@@H]1[C@@H]2CC[C@@]2(C)[C@H]1CC[C@]2(C)O [Lipid 539]	exhibited the best delivery efficacy	can effectively orally deliver	can effectively orally deliver	can effectively orally deliver	can effectively orally deliver	can effectively orally deliver	can effectively orally deliver	can effectively orally deliver	can effectively orally deliver	can effectively orally deliver	can effectively orally deliver
C=C1/C(=C\C=C2/CCC[C@]3(C)[C@@H]([C@H](C)OCCC(C)(C)O)CC[C@@H]23)C[C@@H](O)C[C@@H]1O [Lipid 540]	exhibited the best delivery efficacy	can effectively orally deliver	can effectively orally deliver	can effectively orally deliver	can effectively orally deliver	can effectively orally deliver	can effectively orally deliver	can effectively orally deliver	can effectively orally deliver	can effectively orally deliver	can effectively orally deliver
